These compounds were tested against GCN2 (Homo sapiens, UniProt Q9P2K8) (assay: TR-FRET biochemical assay for inhibition of GCN2 (Example 106, for Example 1-4BB)). Settings: Table 8.
GCN2, sequence (Q9P2K8 whole entry): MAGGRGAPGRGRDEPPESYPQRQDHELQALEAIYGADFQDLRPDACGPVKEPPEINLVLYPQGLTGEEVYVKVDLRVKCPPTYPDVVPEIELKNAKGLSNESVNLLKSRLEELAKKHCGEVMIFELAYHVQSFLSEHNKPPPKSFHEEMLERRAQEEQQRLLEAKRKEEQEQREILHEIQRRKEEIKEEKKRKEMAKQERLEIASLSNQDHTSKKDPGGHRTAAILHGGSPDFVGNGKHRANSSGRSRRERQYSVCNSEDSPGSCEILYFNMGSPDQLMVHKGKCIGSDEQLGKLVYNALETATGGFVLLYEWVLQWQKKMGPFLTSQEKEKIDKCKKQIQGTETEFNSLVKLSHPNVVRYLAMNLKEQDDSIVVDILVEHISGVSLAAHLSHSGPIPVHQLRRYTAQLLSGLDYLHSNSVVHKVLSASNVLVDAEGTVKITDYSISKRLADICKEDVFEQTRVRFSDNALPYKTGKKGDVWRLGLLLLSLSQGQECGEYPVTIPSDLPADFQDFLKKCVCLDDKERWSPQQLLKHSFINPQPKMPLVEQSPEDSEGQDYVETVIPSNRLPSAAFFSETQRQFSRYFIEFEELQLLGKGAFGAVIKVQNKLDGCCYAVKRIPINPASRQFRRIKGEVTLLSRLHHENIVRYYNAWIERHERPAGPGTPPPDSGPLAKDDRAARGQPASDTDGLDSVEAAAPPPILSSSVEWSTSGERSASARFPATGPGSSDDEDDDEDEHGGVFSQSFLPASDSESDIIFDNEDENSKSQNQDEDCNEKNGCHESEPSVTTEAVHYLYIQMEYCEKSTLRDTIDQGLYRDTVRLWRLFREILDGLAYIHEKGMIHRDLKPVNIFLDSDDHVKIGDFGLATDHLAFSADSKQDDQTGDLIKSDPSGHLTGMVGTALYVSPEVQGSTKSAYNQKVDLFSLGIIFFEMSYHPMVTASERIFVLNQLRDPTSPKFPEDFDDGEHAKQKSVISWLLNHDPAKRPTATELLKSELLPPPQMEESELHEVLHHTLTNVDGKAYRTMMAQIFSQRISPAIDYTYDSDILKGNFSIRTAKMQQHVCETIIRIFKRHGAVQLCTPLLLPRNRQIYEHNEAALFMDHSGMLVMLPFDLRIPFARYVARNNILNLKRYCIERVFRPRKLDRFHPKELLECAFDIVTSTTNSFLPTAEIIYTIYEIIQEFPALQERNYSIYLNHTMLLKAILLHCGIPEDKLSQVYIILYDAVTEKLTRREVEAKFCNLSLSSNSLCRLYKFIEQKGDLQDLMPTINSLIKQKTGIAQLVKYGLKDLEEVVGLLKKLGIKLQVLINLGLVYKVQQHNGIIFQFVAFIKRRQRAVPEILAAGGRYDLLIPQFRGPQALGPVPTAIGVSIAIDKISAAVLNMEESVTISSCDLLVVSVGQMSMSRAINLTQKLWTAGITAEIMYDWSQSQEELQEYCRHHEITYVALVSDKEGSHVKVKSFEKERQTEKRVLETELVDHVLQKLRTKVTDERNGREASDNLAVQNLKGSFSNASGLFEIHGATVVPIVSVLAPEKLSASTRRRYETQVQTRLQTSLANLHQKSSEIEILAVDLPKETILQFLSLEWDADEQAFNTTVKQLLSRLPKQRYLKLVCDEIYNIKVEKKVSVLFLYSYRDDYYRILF

IC50 [nM]	Structure (SMILES)
< 500	Cc1ccc(S(=O)(=O)Nc2ccc(F)c(-c3ccc4c(-c5ncc[nH]5)n[nH]c4c3F)c2F)c(C)n1 [Example 2AA, N-(2,4-difluoro-3-(7-fluoro-3-(1H-imidazol-2-yl)-1H-indazol-6-yl)phenyl)-2,6-dimethyl-pyridine-3-sulfonamide]
< 500	Cc1ccc(F)cc1S(=O)(=O)Nc1ccc(F)c(-c2ccc3c(-c4ncc[nH]4)n[nH]c3c2F)c1F [Example 2BJ, N-(2,4-difluoro-3-(7-fluoro-3-(1H-imidazol-2-yl)-1H-indazol-6-yl)phenyl)-5-fluoro-2-methylbenzenesulfonamide]
< 500	Cc1ncc(Cl)cc1S(=O)(=O)Nc1ccc(F)c(-c2ccc3c(-c4ncc[nH]4)n[nH]c3c2F)c1F [Example 2CM, 5-chloro-N-(2,4-difluoro-3-(7-fluoro-3-(1H-imidazol-2-yl)-1H-indazol-6-yl)phenyl)-2-methylpyridine-3-sulfonamide]
< 500	COc1ncc(Cl)cc1S(=O)(=O)Nc1ccc(F)c(-c2ccc3c(-c4ncc[nH]4)n[nH]c3c2F)c1 [Example 2J, 5-chloro-N-(4-fluoro-3-(7-fluoro-3-(1H-imidazol-2-yl)-1H-indazol-6-yl)phenyl)-2-methoxy-pyridine-3-sulfonamide]
< 500	COc1ncccc1S(=O)(=O)Nc1ccc(F)c(-c2ccc3c(-c4ncc[nH]4)n[nH]c3c2F)c1F [Example 2U, N-(2,4-difluoro-3-(7-fluoro-3-(1H-imidazol-2-yl)-1H-indazol-6-yl)phenyl)-2-methoxy-pyridine-3-sulfonamide]
< 500	O=S(=O)(Nc1ccc(F)c(-c2ccc3c(-c4ncc[nH]4)n[nH]c3c2F)c1F)c1cncc(Cl)c1 [Example 2CE]
< 500	O=S(=O)(Nc1ccc(F)c(-c2ccc3c(-c4ncc[nH]4)n[nH]c3c2)c1F)c1cc(Cl)ccc1Cl [Example 2AV, N-(3-(3-(1H-imidazol-2-yl)-1H-indazol-6-yl)-2,4-difluorophenyl)-2,5-dichlorobenzenesulfonamide]
2500 to 10000	Cc1nn(C)cc1S(=O)(=O)Nc1cccc(-c2ccc3c(-c4ncc[nH]4)n[nH]c3c2F)c1F [Example 2N, N-(2-fluoro-3-(7-fluoro-3-(1H-imidazol-2-yl)-1H-indazol-6-yl)phenyl)-1,3-dimethyl-1H-pyrazole-4-sulfonamide]
< 500	O=S(=O)(Nc1ccc(F)c(-c2ccc3c(-c4ncc[nH]4)n[nH]c3c2F)c1F)c1cccc(Cl)c1F [Example 2BB, 3-chloro-N-(2,4-difluoro-3-(7-fluoro-3-(1H-imidazol-2-yl)-1H-indazol-6-yl)phenyl)-2-fluorobenzenesulfonamide]
< 500	O=S(=O)(Nc1ccc(F)c(-c2ccc3c(-c4ncc[nH]4)n[nH]c3c2F)c1F)c1ccccc1F [Example 2BT, N-(2,4-difluoro-3-(7-fluoro-3-(1H-imidazol-2-yl)-1H-indazol-6-yl)phenyl)-2-fluorobenzenesulfonamide]

Same assay, conditions: Table 9

IC50 [nM]	Structure (SMILES)
> 10000	COc1ncc(Cl)cc1S(=O)(=O)Nc1nccc(-c2ccc3c(-c4ncc[nH]4)n[nH]c3c2F)c1F [Example 11, 5-Chloro-N-(3-fluoro-4-(7-fluoro-3-(1H-imidazol-2-yl)-1H-indazol-6-yl)pyridin-2-yl)-2-methoxypyridine-3-sulfonamide]
< 500	COc1nc(C)c(Cl)cc1S(=O)(=O)Nc1ccc(F)c(-c2ccc3c(-c4ncc[nH]4)n[nH]c3c2F)c1F [Example 3DD, 5-chloro-N-(2,4-difluoro-3-(7-fluoro-3-(1H-imidazol-2-yl)-1H-indazol-6-yl)phenyl)-2-methoxy-6-methylpyridine-3-sulfonamide]
< 500	Cc1ccc(S(=O)(=O)Nc2ccc(F)c(-c3ccc4c(C(=O)Nc5cn[nH]c5)n[nH]c4c3F)c2F)c(C)n1 [Example 3DI, 6-(3-((2,6-dimethylpyridine)-3-sulfonamido)-2,6-difluoro-phenyl)-7-fluoro-N-(1H-pyrazol-4-yl)-1H-indazole-3-carboxamide]
< 500	COc1ncc(F)cc1S(=O)(=O)Nc1ccc(F)c(-c2ccc3c(C(=O)NCCCO)n[nH]c3c2F)c1F [Example 3R, 6-(2,6-difluoro-3-((5-fluoro-2-methoxypyridine)-3-sulfonamido)phenyl)-7-fluoro-N-(3-hydroxypropyl)-1H-indazole-3-carboxamide]
< 500	COc1ncc(C#N)cc1S(=O)(=O)Nc1ccc(F)c(-c2ccc3c(C(N)=O)n[nH]c3c2F)c1F [Example 4D]
500 to 2500	Cc1ccc(S(=O)(=O)Nc2ccc(F)c(-c3ccc4c(C(=O)NCCCO)n[nH]c4c3F)c2F)c(C)n1 [Example 3CP, 6-(3-((2,6-dimethylpyridine)-3-sulfonamido)-2,6-difluorophenyl)-7-fluoro-N-(3-hydroxypropyl)-1H-indazole-3-carboxamide]
> 10000	COc1ncc(C#N)cc1S(=O)(=O)Nc1cc(F)cc(-c2ccc3c(C(=O)NCCCN(C)C)n[nH]c3c2F)c1F [Example 3CE, 6-(3-((5-cyano-2-methoxy-pyridine)-3-sulfonamido)-2,5-difluorophenyl)-N-(3-(dimethylamino)propyl)-7-fluoro-1H-indazole-3-carboxamide]
< 500	CNC(=O)c1n[nH]c2c(F)c(-c3c(F)ccc(NS(=O)(=O)c4cc(F)cnc4OC)c3F)ccc12 [Example 3S, 6-(2,6-difluoro-3-((5-fluoro-2-methoxypyridine)-3-sulfonamido)phenyl)-7-fluoro-N-methyl-1H-indazole-3-carboxamide]
< 500	COc1ncc(Cl)cc1S(=O)(=O)Nc1ccc(F)c(-c2ccc3c(C(=O)N[C@@H]4CCN(C)C4)n[nH]c3c2F)c1F [Example 3AD, 6-(3-((5-chloro-2-methoxy-pyridine)-3-sulfonamido)-2,6-difluorophenyl)-7-fluoro-N-((R)-1-methylpyrrolidin-3-yl)-1H-indazole-3-carboxamide]
< 500	O=C(NCCCO)c1n[nH]c2c(F)c(-c3c(F)ccc(NS(=O)(=O)c4cc(F)cc5c4CCC5O)c3F)ccc12 (stereo not shown) [Example 4T]
< 500	COc1ncc(Cl)cc1S(=O)(=O)Nc1cccc(-c2ncc3c(-c4ncc[nH]4)n[nH]c3c2F)c1F [Example 3AG, 5-chloro-N-(2-fluoro-3-(7-fluoro-3-(1H-imidazol-2-yl)-1H-pyrazolo[4,3-c]pyridin-6-yl)phenyl)-2-methoxy-pyridine-3-sulfonamide]
500 to 2500	Cc1ncc(S(=O)(=O)Nc2cc(F)cc(-c3ccc4c(-c5ncc[nH]5)n[nH]c4c3F)c2F)s1 [Example 3CJ, N-(2,5-difluoro-3-(7-fluoro-3-(1H-imidazol-2-yl)-1H-indazol-6-yl)phenyl)-2-methylthiazole-5-sulfonamide]
< 500	Cc1c(CO)cc(F)cc1S(=O)(=O)Nc1ccc(F)c(-c2ccc3c(C(N)=O)n[nH]c3c2F)c1F [Example 4G]
< 500	COc1ncc(Cl)cc1S(=O)(=O)Nc1c(F)ccc(-c2ccc3c(-c4ncc[nH]4)n[nH]c3c2F)c1F [Example 3A, 5-chloro-N-(2,6-difluoro-3-(7-fluoro-3-(1H-imidazol-2-yl)-1H-indazol-6-yl)phenyl)-2-methoxypyridine-3-sulfonamide]
500 to 2500	Cc1ccc(S(=O)(=O)Nc2ccc(F)c(-c3ccc4c(C(N)=O)n[nH]c4c3F)c2F)c(C)n1 [Example 3DL, 6-(3-((2,6-dimethylpyridine)-3-sulfonamido)-2,6-difluoro-phenyl)-7-fluoro-1H-indazole-3-carboxamide]
< 500	COc1ncc(F)cc1S(=O)(=O)Nc1ccc(F)c(-c2ccc3c(C(=O)Nc4cnn(C)c4)n[nH]c3c2F)c1F [Example 3Z, 6-(2,6-difluoro-3-((5-fluoro-2-methoxypyridine)-3-sulfonamido)phenyl)-7-fluoro-1H-(1-methyl-1H-pyrazol-4-yl)-1H-indazole-3-carboxamide]
< 500	Cc1ncc(C#N)cc1S(=O)(=O)Nc1ccc(F)c(-c2ccc3c(C(N)=O)n[nH]c3c2F)c1F [Example 4E]
2500 to 10000	NC(=O)c1n[nH]c2c(F)c(-c3c(F)ccc(NS(=O)(=O)c4cccn5ccnc45)c3F)ccc12 [Example 3AA, 6-(2,6-difluoro-3-(imidazo-[1,2-a]pyridine-8-sulfon-amido)phenyl)-7-fluoro-1H-indazole-3-carboxamide]
< 500	COc1ncc(F)cc1S(=O)(=O)Nc1cccc(-c2ccc3c(-c4nc(CO)c[nH]4)n[nH]c3c2F)c1F [Example 13, 5-Fluoro-N-(2-fluoro-3-(7-fluoro-3-(4-(hydroxymethyl)-1H-imidazol-2-yl)-1H-indazol-6-yl)phenyl)-2-methoxypyridine-3-sulfonamide]
< 500	COc1ncc(F)cc1S(=O)(=O)Nc1ccc(F)c(-c2ccc3c(C(=O)NC[C@@H](O)CO)n[nH]c3c2F)c1F [Example 3AH, 6-(2,6-difluoro-3-((5-fluoro-2-methoxypyridine)-3-sulfonamido)phenyl)-N-((R)-2,3-dihydroxypropyl)-7-fluoro-1H-indazole-3-carboxamide]
< 500	COc1ncc(F)cc1S(=O)(=O)Nc1cccc(-c2ccc3c(-c4ncc[nH]4)n[nH]c3c2F)c1F [Example 3V, N-(2-fluoro-3-(7-fluoro-3-(1H-imidazol-2-yl)-1H-indazol-6-yl)phenyl)-5-fluoro-2-methoxypyridine-3-sulfonamide]
< 500	COc1ncc(F)cc1S(=O)(=O)Nc1ccc(F)c(-c2ccc3c(C(=O)Nc4cnoc4)n[nH]c3c2F)c1F [Example 3BN, 6-(2,6-difluoro-3-((5-fluoro-2-methoxypyridine)-3-sulfonamido)phenyl)-7-fluoro-N-(isoxazol-4-yl)-1H-indazole-3-carboxamide]
< 500	Cc1ncc(F)cc1S(=O)(=O)Nc1ccc(F)c(-c2ccc3c(-c4cccc(=O)[nH]4)n[nH]c3c2F)c1F [Example 15, N-(2,4-Difluoro-3-(7-fluoro-3-(6-oxo-1,6-dihydropyridin-2-yl)-1H-indazol-6-yl)phenyl)-5-fluoro-2-methylpyridine-3-sulfonamide]
2500 to 10000	O=C(NCCCO)c1n[nH]c2c(F)c(-c3c(F)ccc(NS(=O)(=O)c4cccn5ccnc45)c3F)ccc12 [Example 3AR, 6-(2,6-difluoro-3-(imidazo-[1,2-a]pyridine-8-sulfon-amido)phenyl)-7-fluoro-N-(3-hydroxypropyl)-1H-indazole-3-carboxamide]
